From BindingDB's records for doi:10.1021/acschembio.6b00596 (Jagiellonian University, 2016)

Key:
[1] = molecular target: T1, E3 ubiquitin-protein ligase Mdm2 [1-118] (Homo sapiens, UniProt Q00987); assay: NMR Measurements; details: pH 7.4; 15 °C
T1 construct: 1-118

[2] = molecular target: T2, E3 ubiquitin-protein ligase Mdm2 [1-118,T47W] (Homo sapiens, UniProt Q00987, T47W); assay: Microscale Thermophoresis (MT) Binding Assay; details: pH 7.4; 25 °C
T2 construct: 1-118
Experimental: Experiments were performed in 50 mM phosphate buffer at pH 7.4 containing 150 mM NaCl, 5 mM DTT, and 5% DMSO.

| SMILES | Kd [1] | Kd [2] |
| --- | --- | --- |
| O=C1OC(O)(Cc2ccc(F)cc2)C(c2c[nH]c3cc(Cl)ccc23)=C1Cc1ccc(Cl)cc1 (centres undefined) [3-(4-Chlorobenzyl)-4-(6-chloro-1H-indol-3-yl)-5-(4-fluorobenzyl)-5-hydroxy-1,5-dihydro-2H-furan-2-one (2c)] | 18 µM | 28.7 µM |
| O=C1OC(O)(Cc2ccc(F)cc2)C(Cc2ccc(Cl)cc2)=C1c1c[nH]c2cc(Cl)ccc12 (centres undefined) [4-(4-chlorobenzyl)-3-(6-chloro-1H-indol-3-yl)-5-(4-fluorobenzyl)-5-hydroxy-1,5-dihydro-2H-furan-2-one (2d)] | – | 26 µM |
| O=C1OC(O)(Cc2ccc(Cl)cc2)C(c2ccc(Cl)cc2)=C1c1c[nH]c2cc(Cl)ccc12 (centres undefined) [5-(4-chlorobenzyl)-3-(6-chloro-1H-indol-3-yl)-4-(4-chlorophenyl)-5-hydroxy-1,5-dihydro-2H-furan-2-one (2f)] | 68 µM | 7 µM |
| O=C1C(c2c[nH]c3cc(Cl)ccc23)=C(c2ccc(Cl)cc2)C(O)N1Cc1ccc(Cl)cc1 (centres undefined) [N-(4-Chlorobenzyl)-3-(6-chloro-1H-indol-3-yl)-4-(4-chlorophenyl)-5-hydroxy-1,5-dihydro-2H-pyrrol-2-on (1h)] | 40 µM | 2.1 µM |
| O=C1C(c2ccc(Cl)cc2)=C(c2c[nH]c3cc(Cl)ccc23)C(O)N1Cc1ccc(Cl)cc1 (centres undefined) [N-(4-chlorobenzyl)-4-(6-chloro-1H-indol-3-yl)-3-(4-chlorophenyl)-5-hydroxy-1,5-dihydro-2H-pyrrol-2-on (1g)] | 164 µM | 24.4 µM |
| CN1C(=O)C(c2c[nH]c3cc(Cl)ccc23)=C(Cc2ccc(Cl)cc2)C1(O)Cc1ccc(Cl)cc1 (centres undefined) [N-methyl-4,5-di(4-chlorobenzyl)-3-(6-chloro-1H-indol-3-yl)-5-hydroxy-1,5-dihydro-2H-pyrrol-2-one (1b)] | 56 µM | – |
| CN1C(=O)C(c2cn(C)c3cc(Cl)ccc23)=C(c2ccc(Cl)cc2)C1(O)Cc1ccc(Cl)cc1 (centres undefined) [N-methyl-5-(4-chlorobenzyl)-3-(6-chloro-1-methyl-1H-indol-3-yl)-4-(4-chlorophenyl)-5-hydroxy-1,5-dihydro-2H-pyrrol-2-one (1f)] | 246 µM | 30.4 µM |
| CN1C(=O)C(c2c[nH]c3cc(Cl)ccc23)=C(c2ccc(Cl)cc2)C1(O)Cc1ccc(Cl)cc1 (centres undefined) [N-methyl-5-(4-chlorobenzyl)-3-(6-chloro-1H-indol-3-yl)-4-(4-chlorophenyl)-5-hydroxy-1,5-dihydro-2H-pyrrol-2-one (1d)] | 192 µM | 27.7 µM |

Next, values leading:

| Kd [1] | Kd [2] | SMILES |
| --- | --- | --- |
| 86 µM | 1.5 µM | O=C1OC(O)(Cc2ccc(Cl)cc2)C(Cc2ccc(Cl)cc2)=C1c1c[nH]c2cc(Cl)ccc12 (centres undefined) [4,5-di(4-chlorobenzyl)-3-(6-chloro-1H-indol-3-yl)-5-hydroxy-1,5-dihydro-2H-furan-2-one (2b)] |
| 60 µM | 1.3 µM | O=C1OC(O)(Cc2ccc(Cl)cc2)C(c2c[nH]c3cc(Cl)ccc23)=C1c1ccc(Cl)cc1 (centres undefined) [5-(4-Chlorobenzyl)-4-(6-chloro-1H-indol-3-yl)-3-(4-chlorophenyl)-5-hydroxy-1,5-dihydro-2H-furan-2-one (2e)] |
| < 1 µM | 0.5 µM | CN1C(=O)C(Cc2ccc(Cl)cc2)=C(c2c[nH]c3cc(Cl)ccc23)C1(O)Cc1ccc(Cl)cc1 (centres undefined) [N-Methyl-3,5-di(4-chlorobenzyl)-4-(6-chloro-1H-indol-3-yl)-5-hydroxy-1,5-dihydro-2H-pyrrol-2-one (1a)] |
| 365 µM | 40.5 µM | CN1C(=O)C(c2ccc(Cl)cc2)=C(c2cn(C)c3cc(Cl)ccc23)C1(O)Cc1ccc(Cl)cc1 (centres undefined) [N-Methyl-5-(4-chlorobenzyl)-4-(6-chloro-1-methyl-1H-indol-3-yl)-3-(4-chlorophenyl)-5-hydroxy-1,5-dihydro-2H-pyrrol-2-one (1e)] |
| 51 µM | 18.7 µM | CN1C(=O)C(c2ccc(Cl)cc2)=C(c2c[nH]c3cc(Cl)ccc23)C1(O)Cc1ccc(Cl)cc1 (centres undefined) [N-Methyl-5-(4-chlorobenzyl)-4-(6-chloro-1H-indol-3-yl)-3-(4-chlorophenyl)-5-hydroxy-1,5-dihydro-2H-pyrrol-2-one (1c)] |
